Data taken from patent US20230096766A1, “AMINO ACID HAVING FUNCTIONAL GROUP CAPABLE OF INTERMOLECULAR HYDROGEN BONDING, PEPTIDE COMPOUND CONTAINING SAME AND METHOD FOR PRODUCTION THEREOF” (Chugai Seiyaku Kabushiki Kaisha, priority 2018, published 2023).
Where two headings read alike, the source gives them in different places. *1 amine or outer side, *2 acyl side, *3 side chain or, on linkers, in order; H or OH if unused. Where a SMILES comes first, the peptide text is derived from it. Bridges are numbered along the chain shown (N, C = ends). [ ]: non-standard residue; d: D form. The star is where a group is joined. X1 = COc1cc(C[C@H](N[*:1])C(=O)[*:2])ccc1C(=O)NO; NMeAla(4-thiazolyl) = CN[C@@H](Cc1cscn1)C(=O)O; NMePhe(3-Cl) = CN[C@@H](Cc1cccc(Cl)c1)C(=O)O; hhPhe = N[C@@H](CCCc1ccccc1)C(=O)O; NMeF = CN[C@@H](Cc1ccccc1)C(=O)O; NMeI = CC[C@H](C)[C@H](NC)C(=O)O; hPhe = N[C@@H](CCc1ccccc1)C(=O)O; 3Pal = N[C@@H](Cc1cccnc1)C(=O)O; NMeD = CN[C@@H](CC(=O)O)C(=O)O; CH2CH(OH)CF3 = OC(C*)C(F)(F)F; NMeL = CN[C@@H](CC(C)C)C(=O)O; NMeV = CN[C@H](C(=O)O)C(C)C; NMeA = CN[C@@H](C)C(=O)O; Piperidide = C1CCN(*)CC1; dNMeA = CN[C@H](C)C(=O)O; NBuGly = CCCCNCC(=O)O; NPrGly = CCCNCC(=O)O; X2 = Fc1cncc(C*)c1; Sar = CNCC(=O)O; tBu = CC(C)(C)*

Tests used:
in vitro = settings: human

Row | Structure (SMILES) | Papp (in vitro; Caco-2, Caco-2 (cm/sec)) | Caco-2 (Caco-2) | further results
1 | CC(C)C[C@H]1C(=O)N[C@@H](COC(C)(C)C)C(=O)N(C)[C@@H](Cc2ccccc2)C(=O)N(C)[C@@H](C(C)C)C(=O)N[C@H](C(=O)N2CCCCC2)CC(=O)N[C@H](C(C)C)C(=O)N(C)[C@@H](Cc2ccccc2)C(=O)N[C@@H](COc2cccc(Cl)c2)C(=O)N(C)[C@@H](C)C(=O)N[C@@H]([C@@H](C)O)C(=O)N(C)CC(=O)N1C [pd187] | 1.9 ×10⁻⁶ cm/s | 1.9e-06 cm/s | 
2 | CCCCN1CC(=O)N(C)[C@@H](CC(C)C)C(=O)N[C@@H](COC(C)(C)C)C(=O)N(C)[C@@H]([C@@H](C)CC)C(=O)N(C)[C@@H](CC(C)C)C(=O)N[C@H](C(=O)N2CCCCC2)CC(=O)N[C@H](C)C(=O)N(C)[C@@H](Cc2ccccc2)C(=O)N[C@@H](Cc2ccc(C(=O)NO)c(OC)c2)C(=O)N(C)[C@@H](CC(C)C)C(=O)N[C@@H]([C@@H](C)O)C1=O [AP258] ([dA][NMeF][X1][NMeL]T[NBuGly][NMeL]S(tBu)[NMeI][NMeL]D-Piperidide; lactam N-11) | 0.03 ×10⁻⁶ cm/s |  | Caco-2 (Caco-2; human): 2e-08 cm/s
3 | CC(C)C[C@H]1C(=O)N[C@H](C(=O)N2CCCCC2)CC(=O)N(C)[C@@H](C)C(=O)N[C@@H](CCCc2ccccc2)C(=O)N(C)[C@@H](CC(C)C)C(=O)N(C)[C@@H](Cc2ccccc2)C(=O)N[C@@H](C)C(=O)N(C)[C@@H](Cc2ccccc2)C(=O)N(C)[C@@H](C(C)C)C(=O)N[C@@H]([C@@H](C)O)C(=O)N(C)CC(=O)N1C [pd191] ([NMeA][hhPhe][NMeL][NMeF]A[NMeF][NMeV]T[Sar][NMeL]D-Piperidide; lactam N-11) | 1.5 ×10⁻⁶ cm/s | 1.5e-06 cm/s | 
4 | CC(C)C[C@H]1C(=O)N[C@@H]([C@@H](C)O)C(=O)N(C)CC(=O)N(C)[C@@H](C(C)C)C(=O)N[C@@H](Cc2ccccc2)C(=O)N(C)[C@@H](Cc2cccc(Cl)c2)C(=O)N(C)[C@@H](CC(C)C)C(=O)N(C)[C@H](C(=O)N2CCCCC2)CC(=O)N2CCC[C@H]2C(=O)N[C@@H](Cc2ccccc2)C(=O)N[C@@H](COC(C)(C)C)C(=O)N1C [pd162] (PFS(tBu)[NMeL]T[Sar][NMeV]F[NMePhe(3-Cl)][NMeL][NMeD]-Piperidide; lactam N-11) | 1.2 ×10⁻⁶ cm/s | 1.2e-06 cm/s | 
5 | CC[C@H](C)[C@H]1C(=O)N[C@@H]([C@@H](C)O)C(=O)N(C)CC(=O)N(C)[C@@H](CC(C)C)C(=O)N[C@H](C(=O)N2CCCCC2)CC(=O)N(C)[C@@H](C)C(=O)NC(COc2cccc(Cl)c2)C(=O)N(C)[C@@H](CC(C)C)C(=O)N(C)[C@@H](Cc2ccccc2)C(=O)N[C@@H](C)C(=O)N(C)[C@@H](Cc2ccccc2)C(=O)N1C (some centres unmarked) [pd188] | 1.8 ×10⁻⁶ cm/s | 1.3e-06 cm/s | Caco-2 (Caco-2; human): 1.3e-06 cm/s
6 | CC(C)C[C@@H]1NC(=O)[C@H](Cc2ccccc2)N(C)C(=O)[C@@H](C)N(C)C(=O)C[C@@H](C(=O)N2CCCCC2)N(C)C(=O)[C@H](Cc2ccccc2)N(C)C(=O)[C@H](Cc2ccccc2)N(C)C(=O)[C@H](COC(C)(C)C)NC(=O)[C@H](C(C)C)N(C)C(=O)CN(C)C(=O)[C@H]([C@@H](C)O)NC(=O)[C@H](CC(C)C)N(C)C1=O [pd199] ([dNMeA][NMeF]L[NMeL]T[Sar][NMeV]S(tBu)[NMeF][NMeF][NMeD]-Piperidide; lactam N-11) | 2.6 ×10⁻⁶ cm/s | 2.6e-06 cm/s | 
7 | CC(C)C[C@@H]1NC(=O)[C@H](Cc2ccccc2)N(C)C(=O)[C@H](C)N(C)C(=O)C[C@@H](C(=O)N2CCCCC2)NC(=O)[C@H](C(C)C)N(C)C(=O)[C@H](Cc2ccccc2)N(C)C(=O)[C@H](COC(C)(C)C)NC(=O)[C@H](CC(C)C)N(C)C(=O)CN(C)C(=O)[C@H](Cc2cccnc2)NC(=O)[C@H](CC(C)C)N(C)C1=O [pd197] ([NMeA][NMeF]L[NMeL][3Pal][Sar][NMeL]S(tBu)[NMeF][NMeV]D-Piperidide; lactam N-11) | 3 ×10⁻⁶ cm/s | 3e-06 cm/s | 
8 | CCCN1CC(=O)N(C)[C@@H](CC(C)C)C(=O)N[C@@H](COC(C)(C)C)C(=O)N(C)[C@@H](Cc2ccccc2)C(=O)N(C)[C@@H](Cc2ccccc2)C(=O)N[C@H](C(=O)N2CCCCC2)CC(=O)N[C@H](C)C(=O)N(C)[C@@H](Cc2ccccc2)C(=O)N[C@@H](C(C)C)C(=O)N(C)[C@@H](CC(C)C)C(=O)N[C@@H]([C@@H](C)O)C1=O [pd194] ([dA][NMeF]V[NMeL]T[NPrGly][NMeL]S(tBu)[NMeF][NMeF]D-Piperidide; lactam N-11) | 5.3 ×10⁻⁶ cm/s | 5.3e-06 cm/s | 
9 | CC(C)C[C@H]1C(=O)N[C@@H](CCCc2ccccc2)C(=O)N(C)[C@@H](Cc2ccccc2)C(=O)N(C)[C@@H](C(C)C)C(=O)N[C@H](C(=O)N2CCCCC2)CC(=O)N[C@H](C)C(=O)N(C)[C@@H](Cc2ccccc2)C(=O)N[C@@H](C(C)C)C(=O)N(C)[C@@H](CC(C)C)C(=O)N[C@@H]([C@@H](C)O)C(=O)N(C)CC(=O)N1C [pd193] ([dA][NMeF]V[NMeL]T[Sar][NMeL][hhPhe][NMeF][NMeV]D-Piperidide; lactam N-11) | 1 ×10⁻⁶ cm/s | 1e-06 cm/s | 
10 | CC(C)C[C@H]1C(=O)N[C@@H](COC(C)(C)C)C(=O)N(C)[C@@H](Cc2ccccc2)C(=O)N(C)[C@@H](C(C)C)C(=O)N[C@H](C(=O)N2CCCCC2)CC(=O)N[C@H](C)C(=O)N(C)[C@@H](Cc2ccccc2)C(=O)NC(COc2cccc(Cl)c2)C(=O)N(C)[C@@H](C(C)C)C(=O)N[C@@H]([C@@H](C)O)C(=O)N(C)CC(=O)N1C (some centres unmarked) [pd185] | 2.2 ×10⁻⁶ cm/s | 2.2e-06 cm/s | 
11 | CC(C)C[C@H]1C(=O)N[C@@H]([C@@H](C)O)C(=O)N(C)CC(=O)N(C)[C@@H](C(C)C)C(=O)N[C@@H](Cc2ccccc2)C(=O)N(C)[C@@H](Cc2cccc(Cl)c2)C(=O)N(C)[C@@H](CC(C)C)C(=O)N(C)[C@H](C(=O)N2CCCCC2)CC(=O)N(C)[C@H](C)C(=O)N[C@@H](Cc2ccccc2)C(=O)N[C@@H](COC(C)(C)C)C(=O)N1C [pd167] ([dNMeA]FS(tBu)[NMeL]T[Sar][NMeV]F[NMePhe(3-Cl)][NMeL][NMeD]-Piperidide; lactam N-11) | 1.7 ×10⁻⁶ cm/s | 1.7e-06 cm/s | 
12 | CC(C)C[C@@H]1NC(=O)[C@H](Cc2ccccc2)N(C)C(=O)[C@H](C)N(C)C(=O)C[C@@H](C(=O)N2CCCCC2)NC(=O)[C@H](CC(C)C)N(C)C(=O)[C@H](Cc2ccccc2)N(C)C(=O)[C@H](Cc2ccccc2)NC(=O)[C@H](Cc2cscn2)N(C)C(=O)[C@H](C)N(C)C(=O)[C@H](CC(C)C)N(C)C(=O)[C@H]([C@@H](C)O)NC1=O [pd238] ([NMeA][NMeF]LT[NMeL][NMeA][NMeAla(4-thiazolyl)]F[NMeF][NMeL]D-Piperidide; lactam N-11) |  |  | Papp (in vitro; Caco-2, Caco-2 (cm/sec) Papp): 0.096 ×10⁻⁶ cm/s; Caco-2 (cm/sec) Papp (Caco-2; human): 8.8e-08 cm/s
13 | CCCN1CC(=O)N(C)[C@@H](Cc2ccccc2)C(=O)N[C@@H]([C@@H](C)CC)C(=O)N(C)[C@@H](Cc2ccccc2)C(=O)N[C@@H]([C@@H](C)O)C(=O)N(C)CC(=O)N(C)[C@@H](Cc2ccccc2)C(=O)N(C)[C@@H](CC(C)C)C(=O)N[C@@H](COC(C)(C)C)C(=O)N(C)[C@@H](C(C)C)C(=O)N[C@H](C(=O)N2CCCCC2)CC1=O [pd195] ([NPrGly][NMeF]I[NMeF]T[Sar][NMeF][NMeL]S(tBu)[NMeV]D-Piperidide; lactam N-11) | 5 ×10⁻⁶ cm/s | 5e-06 cm/s | 
14 | CC[C@H](C)[C@H]1C(=O)N[C@@H]([C@@H](C)O)C(=O)N(C)CC(=O)N(C)[C@@H](CC(C)C)C(=O)N[C@H](C(=O)N2CCCCC2)CC(=O)N(C)[C@@H](C(C)C)C(=O)N[C@@H](COCc2cncc(F)c2)C(=O)N(C)[C@@H](CC(C)C)C(=O)N(C)[C@@H](Cc2ccccc2)C(=O)N[C@@H](CC(C)C)C(=O)N(C)[C@@H](Cc2ccccc2)C(=O)N1C [pd181] ([NMeV]S(X2)[NMeL][NMeF]L[NMeF][NMeI]T[Sar][NMeL]D-Piperidide; lactam N-11) | 1.1 ×10⁻⁶ cm/s | 1.1e-06 cm/s | 
15 | CC(C)C[C@@H]1NC(=O)[C@H](CC(C)C)N(C)C(=O)[C@H](C)N(C)C(=O)C[C@@H](C(=O)N2CCCCC2)NC(=O)[C@H](CC(C)C)N(C)C(=O)[C@H](Cc2ccccc2)N(C)C(=O)[C@H](Cc2ccccc2)N(C)C(=O)[C@H]([C@@H](C)O)NC(=O)[C@H](Cc2ccccc2)N(C)C1=O [pd211] ([NMeA][NMeL]L[NMeF]T[NMeF][NMeF][NMeL]D-Piperidide; lactam N-9) |  |  | Caco-2 (Caco-2; human): 1.4e-05 cm/s
16 | CCCCN1CC(=O)N(C)[C@@H](CC(C)C)C(=O)N[C@@H](COC(C)(C)C)C(=O)N(C)[C@@H](Cc2ccccc2)C(=O)N(C)[C@@H](CC(C)C)C(=O)N[C@H](C(=O)N2CCCCC2)CC(=O)N[C@H](C(C)C)C(=O)N(C)[C@@H](Cc2ccccc2)C(=O)N[C@@H](COCC(O)C(F)(F)F)C(=O)N(C)[C@@H](CC(C)C)C(=O)N[C@@H]([C@@H](C)O)C1=O (stereo partly drawn) [Compound D01] ([dV][NMeF]S(CH2CH(OH)CF3)[NMeL]T[NBuGly][NMeL]S(tBu)[NMeF][NMeL]D-Piperidide; lactam N-11) |  |  | Caco-2 (membrane permeability) (Caco-2; human): 0.07 ×10⁻⁶ cm/s
17 | CC(C)C[C@H]1C(=O)N(C)[C@@H](Cc2ccccc2)C(=O)N[C@@H](COC(C)(C)C)C(=O)N(C)[C@@H](C)C(=O)N[C@H](C(=O)N2CCCCC2)CC(=O)N(C)[C@@H](C)C(=O)N(C)[C@@H](Cc2ccccc2)C(=O)N[C@@H](CCc2ccccc2)C(=O)N(C)[C@@H](CC(C)C)C(=O)N[C@@H]([C@@H](C)O)C(=O)N(C)CC(=O)N1C [pd183] ([NMeA][NMeF][hPhe][NMeL]T[Sar][NMeL][NMeF]S(tBu)[NMeA]D-Piperidide; lactam N-11) | 2.1 ×10⁻⁶ cm/s | 2.1e-06 cm/s | 
18 | CC(C)C[C@H]1C(=O)N(C)[C@@H](Cc2ccccc2)C(=O)N[C@H](C(=O)N2CCCCC2)CC(=O)N(C)[C@@H](C(C)C)C(=O)N[C@@H](C)C(=O)N(C)[C@@H](Cc2ccccc2)C(=O)N(C)[C@@H](CC(C)C)C(=O)N(C)CC(=O)N[C@@H]([C@@H](C)O)C(=O)N(C)[C@@H](C(C)C)C(=O)N[C@@H](CCc2ccccc2)C(=O)N1C [pd182] ([NMeV]A[NMeF][NMeL][Sar]T[NMeV][hPhe][NMeL][NMeF]D-Piperidide; lactam N-11) | 2.6 ×10⁻⁶ cm/s | 2.6e-06 cm/s | 
